# Columns and labels:
# [1] = target: T1, Sentrin-specific protease 1 (Homo sapiens, UniProt Q9P0U3); test: Inhibition of SENP1 (unknown origin)
# T1 sequence (Q9P0U3 whole entry): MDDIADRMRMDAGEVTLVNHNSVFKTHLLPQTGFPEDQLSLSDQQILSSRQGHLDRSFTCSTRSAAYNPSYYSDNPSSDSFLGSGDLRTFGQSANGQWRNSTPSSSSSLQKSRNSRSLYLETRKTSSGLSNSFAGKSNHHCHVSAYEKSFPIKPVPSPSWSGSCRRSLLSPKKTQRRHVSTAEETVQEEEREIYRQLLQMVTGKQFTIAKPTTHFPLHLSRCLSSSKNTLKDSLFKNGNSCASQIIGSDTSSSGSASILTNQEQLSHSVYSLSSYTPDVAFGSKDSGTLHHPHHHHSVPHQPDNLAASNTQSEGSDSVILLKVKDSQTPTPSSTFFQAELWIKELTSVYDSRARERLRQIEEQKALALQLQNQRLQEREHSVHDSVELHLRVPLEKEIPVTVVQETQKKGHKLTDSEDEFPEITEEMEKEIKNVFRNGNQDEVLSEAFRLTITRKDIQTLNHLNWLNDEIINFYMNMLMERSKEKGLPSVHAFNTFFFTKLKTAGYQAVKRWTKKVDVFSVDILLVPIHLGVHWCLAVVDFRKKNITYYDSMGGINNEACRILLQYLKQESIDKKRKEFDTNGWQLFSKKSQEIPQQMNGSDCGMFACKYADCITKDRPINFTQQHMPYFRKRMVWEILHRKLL
# [2] = target: T1, Sentrin-specific protease 1; test: Inhibition of human full-length recombinant SENP1
SMILES,IC50 [1] [µM],IC50 [2] [nM]
CCCCOc1ccc(-c2nonc2NC(=O)COc2ccccc2C)cc1,> 30,–
O=C(Cc1ccccc1)Oc1c(OC(=O)Cc2ccccc2)c(-c2ccc(O)cc2)c(O)c(O)c1-c1ccc(O)cc1 [VIALININ A],–,1600
Cc1cc(OCC(=O)Nc2nonc2NC(=O)COc2ccc(Cl)c(C)c2)ccc1Cl,> 30,–
